Experimental data taken from patent US11696913B2, “Prolonged ectoparasite-controlling agent for animal” (MITSUI CHEMICALS AGRO, INC., priority 2017, dated 2023).
Where two headings read alike, the source gives them in different places.

Assays:
Amblyomma americanum = experiment: In vitro contact test with hard ticks (Amblyomma americanum nymphs); settings: read-out: acaricidal activity; for pest or weed control at 0.2 µg/cm2, 0.2 µg/cm2: dose 0.2 μg/cm^2, 48 h; for pest or weed control at 1 µg/cm2, 1 µg/cm2: dose 1 μg/cm^2, 48 h
Summary of the method: (§1)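 Acaricidal activity = % ticks dead or moribund after 48 h contact with acetone-deposited compound on vial walls (e.g., 900 ppm solution → 5 μg/cm^2). Ambient conditions for R. sanguineus, 21° C./85% rel. hum. for other species; heat challenge at 45-50° C. separated climbers from moribund ticks.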

Laodelphax striatellus = experiment: Insecticidal testing against small brown planthopper; format: in vivo; settings: 144 h, concentration 100 ppm, sprayed rice seedlings, after 6 days, read-out: pesticidal rate
Summary of the method: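 Acetone solution of compound at a set concentration sprayed onto rice seedlings, air-dried, then exposed to 10 planthoppers (one group). Held at 25° C; survival rate recorded after 6 days.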

Ixodes ricinus = experiment: In vitro contact test with adult hard ticks (Ixodes ricinus); settings: read-out: acaricidal activity; for pest or weed control at 5 µg/cm2, 5 µg/cm2: dose 5 μg/cm^2, 48 h
Summary of the method: as §1

Spodoptera litura = experiment: Insecticidal testing against common cutworm; format: in vivo; settings: foliar, 144 h, concentration 100 ppm, cabbage leaf dip, second-stage larvae, after 6 days, read-out: pesticidal rate
Source text: Insecticidal Testing Against Common Cutworm (Spodoptera litura)

Ctenocephalides felis [1] = experiment: In vitro contact test with fleas; settings: read-out: insecticidal activity; for pest or weed control at 0.2 µg/cm2, 0.2 µg/cm2: dose 0.2 μg/cm^2, dead or moribund fleas after 48 h; for pest or weed control at 1 µg/cm2, 1 µg/cm2: dose 1 μg/cm^2, dead or moribund fleas after 48 h
Summary of the method: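 Activity is the percentage of fleas dead or moribund at 48 h, judged by immobility or uncoordinated movement after tapping. Tubes were coated by evaporating acetone solutions (900 ppm gives 5 μg/cm^2), then held 5-10 adult fleas of both sexes at room temperature and ambient humidity.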

Ctenocephalides felis [2] = experiment: Ctenocephalides felis in-vitro feeding test with fleas (CTECFE oral); settings: 48 hours, read-out: insecticidal feeding activity; for pest or weed control at 0.032 ppm: dose 0.032 ppm in citrated cattle blood; for pest or weed control at 0.16 ppm: dose 0.16 ppm in citrated cattle blood; for pest or weed control at 0.8 ppm: dose 0.8 ppm in citrated cattle blood; for pest or weed control at 4 ppm: dose 4 ppm in citrated cattle blood
Summary of the method: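 Scored as percent fleas killed (0–100%) 48 hours after feeding began. Compound, dissolved in DMSO and diluted into citrated cattle blood, was offered via a parafilm membrane to roughly 20 adult male and female C. felis at about 37° C.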

Rhipicephalus sanguineus = experiment: In vitro contact test with adult hard ticks (Rhipicephalus sanguineus); settings: read-out: acaricidal activity; for pest or weed control at 0.2 µg/cm2, 0.2 µg/cm2: dose 0.2 μg/cm^2, 48 h; for pest or weed control at 1 µg/cm2, 1 µg/cm2: dose 1 μg/cm^2, 48 h
Summary of the method: as §1

Plutella xylostella = experiment: Insecticidal testing against diamondback moth; format: in vivo; settings: foliar, 144 h, concentration 100 ppm, cabbage leaf dip, third-stage larvae, after 6 days, read-out: pesticidal rate
Source text: Insecticidal Testing Against Diamondback Moth (Plutella xylostella)

[3] = tested on: Rhipicephalus (Boophilus) microplus; experiment: In vitro injection test with Rhipicephalus (Boophilus) microplus (BOOPMI Inj); settings: 168 h, laid fertile eggs after 7 days, read-out: acaricidal activity; for pest or weed control at 0.00016 mg: dose 0.16 μg/animal injected; for pest or weed control at 0.0008 mg: dose 0.8 μg/animal injected; for pest or weed control at 32 ng: dose 0.032 μg/animal injected
Summary of the method: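 Five engorged adult females each get a 1 μl abdominal injection of compound dissolved and diluted in DMSO. Kept 7 days at 28° C./85% rel. hum.; percent activity rates egg laying and egg fertility (0% all fertile, 100% none laid or infertile).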

Dermacentor variabilis = experiment: In vitro contact test with adult hard ticks (Dermacentor variabilis); settings: read-out: acaricidal activity
Summary of the method: as §1

SMILES	pest or weed control at 0.2 µg/cm2, 0.2 µg/cm2 (Amblyomma americanum)	pest or weed control at 1 µg/cm2, 1 µg/cm2 (Amblyomma americanum)	pest or weed control at 100 ppm (Laodelphax striatellus)	pest or weed control at 1 µg/cm2, 1 µg/cm2 (Ixodes ricinus; dose 1 μg/cm^2, 48 h)	pest or weed control at 5 µg/cm2, 5 µg/cm2 (Ixodes ricinus)	pest or weed control at 100 ppm (Spodoptera litura)	pest or weed control at 0.2 µg/cm2, 0.2 µg/cm2 (Ctenocephalides felis [1])	pest or weed control at 1 µg/cm2, 1 µg/cm2 (Ctenocephalides felis [1])	pest or weed control at 0.032 ppm (Ctenocephalides felis [2])	pest or weed control at 0.16 ppm (Ctenocephalides felis [2])	pest or weed control at 0.8 ppm (Ctenocephalides felis [2])	pest or weed control at 4 ppm (Ctenocephalides felis [2])	pest or weed control at 0.2 µg/cm2, 0.2 µg/cm2 (Rhipicephalus sanguineus)	pest or weed control at 1 µg/cm2, 1 µg/cm2 (Rhipicephalus sanguineus)	pest or weed control at 100 ppm (Plutella xylostella)	pest or weed control at 0.00016 mg [3]	pest or weed control at 0.0008 mg [3]	pest or weed control at 0.2 µg/cm2, 0.2 µg/cm2 (Ixodes ricinus; dose 0.2 μg/cm^2, 48 h)	pest or weed control at 32 ng [3]	further results
O=C(Nc1cccc(C(=O)Nc2c(I)cc(C(F)(C(F)(F)F)C(F)(F)F)cc2[S+]([O-])C(F)(F)F)c1F)c1ccc(F)cc1 (centres unmarked) [Compound 65]	90%	90%	≥ 70%	90%	90%	≥ 70%	95%	95%	95%	95%	95%	95%	90%	90%	≥ 70%	100%	100%	–	–	–
O=C(Nc1cc(C(=O)Nc2c(I)cc(C(F)(C(F)(F)F)C(F)(F)F)cc2C(F)(F)F)ccc1F)c1ccc(F)cc1 [Compound 84]	90%	90%	≥ 70%	90%	90%	≥ 70%	–	–	–	95%	95%	95%	90%	90%	≥ 70%	100%	100%	90%	100%	pest or weed control at 0.04 µg/cm2, 0.04 µg/cm2 (Rhipicephalus sanguineus; dose 0.04 μg/cm^2, 48 h): 90%; pest or weed control at 0.2 µg/cm2, 0.2 µg/cm2 (Dermacentor variabilis; dose 0.2 μg/cm^2, 48 h): 90%; pest or weed control at 1 µg/cm2, 1 µg/cm2 (Dermacentor variabilis; dose 1 μg/cm^2, 48 h): 90%
O=C(Nc1cccc(C(=O)Nc2c(I)cc(C(F)(C(F)(F)F)C(F)(F)F)cc2C(F)(F)F)c1F)c1ccc(F)nc1 [Compound 116, 6-fluoro-N-(2-fluoro-3-((2-iodo-4-(perfluoropropan-2-yl)-6-(trifluoromethyl)phenyl)carbamoyl)phenyl)nicotinamide]	90%	90%	≥ 70%	–	–	≥ 70%	95%	95%	95%	95%	95%	95%	–	90%	≥ 70%	100%	100%	–	100%	pest or weed control at 0.2 µg/cm2, 0.2 µg/cm2 (Ixodes ricinus; 48 h): 90%; pest or weed control at 1 µg/cm2, 1 µg/cm2 (Ixodes ricinus; 48 h): 90%; pest or weed control at 0.04 µg/cm2, 0.04 µg/cm2 (Ctenocephalides felis [1]; dose 0.04 μg/cm^2, dead or moribund fleas after 48 h): 95%; pest or weed control at 0.0064 ppm (Ctenocephalides felis [2]; dose 0.0064 ppm in citrated cattle blood): 95%
O=C(Nc1cccc(C(=O)Nc2c(I)cc(C(F)(C(F)(F)F)C(F)(F)F)cc2OC(F)(F)F)c1F)c1ccc(C(F)(F)F)nc1 [Compound 118, N-(2-fluoro-3-((2-iodo-4-(perfluoropropan-2-yl)-6-(trifluoromethoxy)phenyl)carbamoyl)phenyl)-6-(trifluoromethyl)nicotinamide]	90%	90%	≥ 70%	90%	90%	≥ 70%	95%	95%	95%	95%	95%	95%	90%	90%	≥ 70%	100%	100%	90%	100%	–
